Earlier results as cited in patent publication US8957276B2 (priority 2009, dated 2015).

tested on: Human; conditions: in vivo, po

SMILES | Acute toxicity (LD50)
[Hg] [Hg, metallic mercury] | 43 mg/kg

tested on: Rat; conditions: in vivo, po

SMILES | Acute toxicity (LD50)
[CH3][Hg][CH3] [(CH3)2Hg] | 26 mg/kg
[Cl][Hg].[Cl][Hg] [Hg2Cl2] | 210 mg/kg
[Cl][Hg][Cl] [HgCl2, mercury chloride (II)] | 1 mg/kg
[Cl][Hg] [HgCl] | 210 mg/kg
[O]=[Hg] [HgO, mercury oxide] | 18 mg/kg
